Here are results for nine compounds from BindingDB's records for doi:10.1016/0960-894X(95)00174-R (1995).

One may read the Ki as the equilibrium dissociation constant of an inhibitor or competing ligand from its target. A high value points to a looser hold on the target. Broadly, the IC50 is the concentration that inhibits the measured activity by half. High values mean lower potency, low ones higher potency.

Experiment [1] concerns the target Platelet-activating factor receptor (Oryctolagus cuniculus). Put plainly: In vitro ability to displace [3H]PAF from PAF receptor in rabbit platelet membranes.
The target is the same in experiment [2]. Put plainly: In vitro inhibitory activity against PAF-induced aggregation of rabbit platelets.

In the case of `CCCCCCCCCCCCCCCCCCNC(=O)OC[C@H]1C[C@H](COC(=O)N(Cc2cccc[n+]2CC)C(=O)c2ccc(OC)cc2)S1` [1-Ethyl-2-{[(4-methoxy-benzoyl)-(4-octadecylcarbamoyloxymethyl-thietan-2-ylmethoxycarbonyl)-amino]-methyl}-pyridinium; chloride], the affinity in experiment [1] corresponds to a Ki of 34 nM. Besides, in experiment [2], the IC50 was determined as 84 nM.
For `CCCCCCCCCCCCCCCCCCNC(=O)OC[C@H]1C[C@H](COC(=O)N(Cc2cccc[n+]2CC)C(C)=O)C1` [2-{[Acetyl-(3-octadecylcarbamoyloxymethyl-cyclobutylmethoxycarbonyl)-amino]-methyl}-1-ethyl-pyridinium; iodide], in experiment [1], affinity was put at a Ki of 4.3 nM.
In turn, `CCCCCCCCCCCCCCCCCCNC(=O)OC[C@H]1C[C@H](COC(=O)N(Cc2cccc[n+]2CC)C(C)=O)N1C(C)=O` [2-{[Acetyl-((2R,4R)-1-acetyl-4-octadecylcarbamoyloxymethyl-azetidin-2-ylmethoxycarbonyl)-amino]-methyl}-1-ethyl-pyridinium; chloride] returned a Ki in experiment [1] of 35 nM. This Ki lies about 8.1-fold higher than the previous one.
As for `CCCCCCCCCCCCCCCCOC[C@H]1C[C@H](COC(=O)N(Cc2cccc[n+]2CC)C(C)=O)S1` [2-{[Acetyl-((2R,4R)-4-hexadecyloxymethyl-thietan-2-ylmethoxycarbonyl)-amino]-methyl}-1-ethyl-pyridinium; chloride], the Ki in experiment [1] is 20 nM. In experiment [2], this compound showed an IC50 of 52 nM.
On to `CCCCCCCCCCCCCCCCCCNC(=O)OC[C@H]1C[C@H](COC(=O)N(Cc2cccc[n+]2CC)C(C)=O)S1` [2-{[Acetyl-((2R,4R)-4-octadecylcarbamoyloxymethyl-thietan-2-ylmethoxycarbonyl)-amino]-methyl}-1-ethyl-pyridinium; chloride], for which the Ki in experiment [1] worked out at 4.3 nM. In experiment [2], this compound registered a half-inhibitory concentration (IC50) of 57 nM.
Regarding `CCCCCCCCCCCCCCCCOC[C@H]1C[C@@H](COC(=O)N(Cc2cccc[n+]2CC)C(C)=O)O1` [2-{[Acetyl-((2S,4R)-4-hexadecyloxymethyl-oxetan-2-ylmethoxycarbonyl)-amino]-methyl}-1-ethyl-pyridinium; iodide], the affinity in experiment [1], expressed as Ki, was 21 nM. The same compound showed an IC50 in experiment [2] of 95 nM.
The compound `CCCCCCCCCCCCCCCCCCNC(=O)OC[C@H]1C[C@@H](COC(=O)N(Cc2cccc[n+]2CC)C(C)=O)S1` [2-{[Acetyl-((2S,4R)-4-octadecylcarbamoyloxymethyl-thietan-2-ylmethoxycarbonyl)-amino]-methyl}-1-ethyl-pyridinium; chloride] registered a Ki in experiment [1] of 9.8 nM. For the same compound, the IC50 in experiment [2] amounted to 61 nM.
Take `CCCCCCCCCCCCCCCCNC(=O)OC[C@@H]1C[C@@H](COC(=O)N(Cc2cccc[n+]2CC)C(C)=O)S1` [2-{[Acetyl-((2S,4S)-4-hexadecylcarbamoyloxymethyl-thietan-2-ylmethoxycarbonyl)-amino]-methyl}-1-ethyl-pyridinium; chloride]: affinity in experiment [1] was put at a Ki of 9.8 nM.
In experiment [1], `CCCCCCCCCCCCCCCCOC[C@@H]1C[C@@H](COC(=O)N(Cc2cccc[n+]2CC)C(C)=O)O1` [2-{[Acetyl-((2S,4S)-4-hexadecyloxymethyl-oxetan-2-ylmethoxycarbonyl)-amino]-methyl}-1-ethyl-pyridinium; iodide] registered a Ki of 15 nM. The concentration for half-maximal inhibition (IC50) in experiment [2] is 57 nM.
